Results on five molecules are retold here after US9308238B2, “Compositions and methods for modulating EMT and uses thereof” (Whitehead Institute for Biomedical Research, priority 2010, dated 2016).

By Ki is commonly meant the dissociation constant of the complex between target and ligand, obtained from inhibition or displacement.

For assay [1], the system named is HTwist and MSP cells. Put plainly: Mammosphere assay, HTwist and MSP cells. In kind it is cell-based, human. The note with it: 10 μM; to a similar extent as added BMP4 protein. As for the experimental part: FIGS. 10A-10E. […] (FIG. 10E) Mammosphere Assay: HTwist and MSP were treated daily during mammosphere formation (5 days) with BMP4 (0.5 μg/ml), SB431542 (10 μM) or a combination of both, n(mammospheres)/1000 cells, n=6.
(§1) Mammosphere and tumorsphere assay. Assays were performed as previously described with modifications (Dontu et al., 2003): 1000 cells/well were seeded in 96-well ultra-low adhesion plates (Corning) in MEGM medium containing 1.3% methylcellulose (Stem Cell Technologies) supplemented with 20 ng/ml EGF, 10 ng/ml bFGF (both Sigma) and B27 (Gibco). Primary spheres were dissociated by trypsinization and replated for secondary sphere formation after a period of 5-7 days.

In assay [2] the test system is HTwist and MSP cells. Put plainly: Boyden chamber migration assay, HTwist and MSP cells. Format: cell-based, human. The following applies: for effect on migration: 10 μM, to a similar extent as added BMP4 protein. The protocol:
(§2) FIGS. 3A-3E. Autocrine Signaling controls migration and mammosphere formation.
FIGS. 10A-10E. […] (FIG. 10C) Mammosphere assay: HTwist cells were treated daily during mammosphere formation (5 days) with proteins as described in (B); *control vs. single treatment, p<1×10^−5, **single vs. double-treatment, p<0.01, n(mammospheres)/1000 cells, n=6, (FIG. 10D) Migration Assay: HTwist and MSP cells were seeded into Boyden Chambers in the presence of TGF-beta Receptor I inhibitors A83-01 and SB431542 (SB43, both at 10 μM). (FIG. 10E) Mammosphere Assay: HTwist and MSP were treated daily during mammosphere formation (5 days) with BMP4 (0.5 μg/ml), SB431542 (10 μM) or a combination of both, n(mammospheres)/1000 cells, n=6.
Migration and invasion assays. For migration assays, 2×10^4 cells were seeded into 24-well cell culture inserts with 8-μm pores (Boyden Chambers, BD Falcon). For invasion assays, matrigel-coated inserts (BD Falcon) were used. After 12-48 hr, the cells on the upper surface of the filters were removed with a cotton swab. For visualization, cells on lower filter surfaces were fixed and stained with a Diff-Quick staining kit (Dade Behring).

The target in the next assay is GSK3. The note with it: ATP-competitive manner; cited from earlier work.
The next assay relates to 26 other kinases. The following applies: cited from earlier work.
The next assay has as its system Cdk-1/cyclin B. The note with it: at >100 μM; cited from earlier work.
The test system of a further assay is PKA. The following applies: at >100 μM; cited from earlier work.
A further assay concerns PKC. The note with it: at >100 μM; cited from earlier work.
In another assay the test system is CK-II. The following applies: at >100 μM; cited from earlier work.
The test system of the next assay is HMLE^24+ cells. Nature of the assay: Boyden chamber migration assay, HMLE^24+ cells. In kind it is cell-based, human. The note with it: 0.5 μg/ml in growth medium. The protocol:
as §2
FIGS. 5A-5H. Concomitant stimulation of Wnt and TGF-beta pathways allows HMLE^24+ cells to enter into a mesenchymal and SC-like state. (FIG. 5A) RT-PCR: N-Cadherin, Zeb1 and Zeb2, L32 was loading control, n=3. Prior RNA isolation, HMLE^24+-shGFP or -shSFRP1 (stable knockdown of SFRP1, FIG. 12A) cells were treated for 3 days with daily doses of indicated factors: anti-DKK1 antibody (10 μg/ml), anti-E-Cadherin antibody (1 μg/ml), TGF-beta 1 (5 ng/ml), Wnt5a (250 ng/ml), (FIG. 5B) Brightfield microscopy: images of control, TGF-beta- and iEMT-cocktail treated HMLE^24+ cells after 14 days of treatment as indicated (see also FIG. 12D). (FIG. 5C) RT-PCR: Zeb1, Zeb2, E-Cadherin and N-Cadherin, L32 was loading control, n=3. After 14 day treatment, cells were expanded in absence of further stimulation for 4 passages. Shown are PBS-treated control HMLE^24+-shGFP and HMLE^24+-shSFRP1 cells, two HMLE^24+-shGFP cultures treated with TGF-beta 1 (TGF-β-a and -b), two HMLE^24+-shSFRP1 cultures treated with the iEMT-cocktail (iEMT-a and -b). (FIG. 5D) Immunoblot: EMT markers and associated autocrine pathways, cells generated as described in (C). (FIG. 5E) Migration (Boyden Chamber Assay) and Mammosphere Assay: cells generated as indicated in (C), *control vs. TGF-beta treatment, p<1×10^−4, **control vs. iEMT-treatment, p<1×10^−9, n(migration)=3, n(mammospheres)/1000 cells, n=7. (FIG. 5F) Flow cytometry: CD44 and CD24 cell-surface marker expression in control, TGF-beta-a and iEMT-a cells generated as described in (C). (FIG. 5G) Lung metastasis: cells expanded for 8 passages after cessation of treatment as described in (C) were transformed with RAS; 1.0×10^5 cells were injected into the mammary fat pads of mice; GFP-labeled metastases on the surface of the lungs were quantified; *control vs. all other groups, p<0.05, n=5 mice/group. […]

The subject of another assay is MSP cells. Put plainly: Mammosphere assay, MSP cells. Format: cell-based, human. The following applies: added daily for 5 days (FIG. 3D). As for the experimental part:
as §2, §1

In the case of `Cc1cccc(-c2nn(C(=S)Nc3ccccc3)cc2-c2ccnc3ccccc23)n1` [A83-01, reference compound], in the assay on HTwist and MSP cells [1], the “effect on mammosphere formation” value is “attenuated”. The effect on migration result in the assay on HTwist and MSP cells [2] was “attenuated”.
As to `COc1ccc(CNC(=O)Nc2ncc([N+](=O)[O-])s2)cc1` [AR-A014418, N-(4-Methoxybenzyl)-N′-(5-nitro-1,3-thiazol-2-yl)urea], at GSK3, the Ki is […]. For the same molecule, the “inhibition of 26 other kinases” value with 26 other kinases is given as “does not significantly inhibit”.
As to `NC(=O)c1ccc(-c2nc(-c3ccc4c(c3)OCO4)c(-c3ccccn3)[nH]2)cc1` [SB431542, reference compound], the “effect on mammosphere formation” value in the assay on HTwist and MSP cells [1] is given as “attenuated”. For the same molecule, the effect on migration entry in the assay with HTwist and MSP cells [2] was “attenuated”.
With `Cn1sc(=O)n(Cc2ccccc2)c1=O` [TDZD-8, 4-Benzyl-2-methyl-1,2,4-thiadiazolidine-3,5-dione], the “inhibition of Cdk-1/cyclin B” value in the assay with Cdk-1/cyclin B is “does not inhibit”. For the same molecule, the “inhibition of PKA” value with PKA is “does not inhibit”. In addition, the “inhibition of PKC” value with PKC was “does not inhibit”. For the same molecule, the “inhibition of CK-II” value in the assay with CK-II is given as “does not inhibit”.

B1: DKK1: Recombinant human DKK1 protein (R&D Systems), secreted antagonist of canonical Wnt pathway (protein, UniProt O94907 32-266, looked up)
Dickkopf-related protein 1: TLNSVLNSNAIKNLPPPLGGAAGHPGSAVSAAPGILYPGGNKYQTIDNYQPYPCAEDEECGTDEYCASPTRGGDAGVQICLACRKRRKRCMRHAMCCPGNYCKNGICVSSDQNHFRGEIEETITESFGNDHSTLDGYSRRTTLSSKMYHTKGQEGSVCLRSSDCASGLCCARHFWSKICKPVLKEGQVCTKHRRKGSHGLEIFQRCYCGEGLSCRIQKDHHQASNSSRLHTCQRH
As to B1, the “motility of HMLE^24+ cells upon addition of protein” value in the assay with HMLE^24+ cells is recorded as “not further reduced”. In addition, in the assay on HTwist and MSP cells [2] (at the highest concentration), the reduction of migration stood at 10 fold. Also, in the assay with MSP cells, the “reduction of primary mammosphere number” value stood at 20%.
